Data published in patent US20090291964A1, “Potentiators of Antibacterial Activity” (priority 2003, published 2009).
Where two headings read alike, the source gives them in different places.

What was measured:
Format in all cases: cell-based
[1] = tested on: S. aureus clinical isolates; test: MIC90 studies: fluoroquinolone susceptibility of clinical isolate panel with EPI; settings: Staphylococcus aureus
Experimental: (§1) Susceptibility studies with large panels of resistant clinical isolates were performed at Focus Technologies, Herndon, Va. according to NCCLS protocols (National Committee for Clinical Laboratory Standards, supra).
(§2) To be useful in combination therapy, an EPI needs to substantially reduce the MIC of an antibiotic to within the range of clinical susceptibility. Because many different resistance mechanisms are often present in clinical isolates, including the likelihood of multiple target-based mutations in addition to efflux mutations, the barrier to antibiotic efficacy is much greater. […] Oxacillin and vancomycin MICs were also determined to identify which isolates were methicillin-resistant (S. aureus) and vancomycin-resistant (E. faecalis).

[2] = tested on: E. faecalis clinical isolates; test: as above; settings: Enterococcus faecalis
Experimental: as §1, §2

[3] = tested on: S. aureus ATCC 29213; test: MIC by NCCLS microdilution, antibacterial agents with and without EPI; settings: for MIC: Staphylococcus aureus; for MIC in the presence of 4X MEC of EPI, VX-710: VX-710 100 μg/ml; for MIC in the presence of 4X MEC of EPI, VX-853: VX-853 6.25 μg/ml; for MIC in the presence of 4X MEC of EPI, reserpine: reserpine 25 μg/ml
Experimental: 3% sterile laked horse blood (Quad Five, Ryegate, Mont.) was added to assays for E. faecalis and S. Pneumoniae. A final concentration of 1% DMSO was present in all assays. […]
A-106 and C-9 were tested at their respective MECs in combination with a variety of different classes of antibiotics against S. aureus ATCC 29213 (Table 2).

[4] = tested on: S. aureus SA-8325-4; test: MIC of fluoroquinolones with and without EPI; settings: Staphylococcus aureus, SA83254, read-out: MIC of antibacterial agent, EPI none
From the text: (§3) A variety of strains may be used in these experiments, including, but not limited to, S. aureus ATCC 29213, E. faecalis ATCC 29212, and S. pneumoniae, S. aureus strains SA-1199, SA-1199B, SA-8325-4, and SA-K2068. S. aureus ATCC 29213, E. faecalis ATCC 29212, and S. pneumoniae ATCC 10015 were obtained from the American Type Culture Collection (Manassas, Va.). S. aureus strains SA-1199 (clinical isolate, susceptible), SA-1199B (SA-1199, NorA overproducing, also has A116E GrlA mutation), SA-8325-4 (NCTC 8325 cured of prophages), SA-K2068 (SA-8325-4, non-NorA multidrug efflux pump overproducing mutation) were obtained from Glenn Kaatz (Kaatz et al., “Identification and characterization of a novel efflux-related multidrug resistance phenotype in Staphylococcus aureus”, J. Antimicrob. Chemother. 50:833-838 (2002); 1993; Kaatz et al., “Phenothiazines and thioxanthenes inhibit multidrug efflux pump activity in Staphylococcus aureus”, Antimicrob. Agents Chemother. 47:719-726, Kaatz et al., “Efflux-mediated fluoroquinolone resistance in Staphylococcus aureus. Antimicrob. Agents Chemother.”, 37:1086-1094, 1993)).
(§4) 3% sterile laked horse blood (Quad Five, Ryegate, Mont.) was added to assays for E. faecalis and S. Pneumoniae. A final concentration of 1% DMSO was present in all assays.

[5] = tested on: S. aureus SA-1199 (clinical isolate, susceptible); test: MIC of fluoroquinolones with and without EPI
From the text: as §3, §4

[6] = tested on: S. aureus SA-K2068 (non-NorA multidrug efflux pump overproducing); test: microbe, parasite or virus in culture; settings: S. aureus K2068 (non-NorA MDR pump overproducer); no EPI
From the text: as §3, §4
(§5) Recent more hydrophobic fluoroquinolones such as gatifloxacin and moxifloxacin are less well recognized by NorA; however, recently one other pump in S. aureus has been described which also recognizes hydrophobic fluoroquinolones (Kaatz et al. 2002, supra). To investigate the potential of A-106 and C-9 to block the efflux of several fluoroquinolones in cells with constituitively over-expressed efflux pumps, we used S. aureus strains SA-1199B and K2068 (Table 3). […] Kaatz et al., “Phenothiazines and thioxanthenes inhibit multidrug efflux pump activity in Staphylococcus aureus”, Antimicrob. Agents Chemother. 47:719-726 (2003).

[7] = tested on: S. aureus SA-1199B (NorA overproducing); test: MIC of fluoroquinolones with and without EPI; settings: S. aureus SA-1199B (NorA overproducer, GrlA A116E); no EPI
From the text: as §3, §4, §5

[8] = ATCC29213, antibacterial agent alone, read-out: MIC, No EPI

Cc1onc(-c2ccccc2)c1C(=O)N[C@@H]1C(=O)N2[C@@H]1SC(C)(C)[C@@H]2C(=O)O [Oxacillin]
MIC ([1]; S. aureus clinical isolate 1): 16 µg/mL | MIC ([1]; S. aureus clinical isolate 2): > 64 µg/mL | MIC ([1]; S. aureus clinical isolate 3): 32 µg/mL | MIC ([1]; S. aureus clinical isolate 4): > 64 µg/mL | MIC ([1]; S. aureus clinical isolate 5): 2 µg/mL | MIC ([1]; S. aureus clinical isolate 6): 16 µg/mL | MIC ([1]; S. aureus clinical isolate 7): 2 µg/mL | MIC ([1]; S. aureus clinical isolate 8): 4 µg/mL | MIC ([1]; S. aureus clinical isolate 9): 2 µg/mL | MIC ([1]; S. aureus clinical isolate 10): > 64 µg/mL | MIC ([1]; S. aureus clinical isolate 11): > 64 µg/mL | MIC ([1]; S. aureus clinical isolate 12): 2 µg/mL | MIC ([1]; S. aureus clinical isolate 13): > 64 µg/mL | MIC ([1]; S. aureus clinical isolate 14): > 64 µg/mL | MIC ([1]; S. aureus clinical isolate 15): > 64 µg/mL

CN[C@H](CC(C)C)C(=O)N[C@H]1C(=O)N[C@@H](CC(N)=O)C(=O)N[C@H]2C(=O)N[C@H]3C(=O)N[C@H](C(=O)N[C@H](C(=O)O)c4cc(O)cc(O)c4-c4cc3ccc4O)[C@H](O)c3ccc(c(Cl)c3)Oc3cc2cc(c3O[C@@H]2O[C@H](CO)[C@@H](O)[C@H](O)[C@H]2O[C@H]2C[C@](C)(N)[C@H](O)[C@H](C)O2)Oc2ccc(cc2Cl)[C@H]1O [Vancomycin]
MIC ([2]; read-out: MIC, No EPI, E. faecalis clinical isolate 1): 1 µg/mL | MIC ([2]; read-out: MIC, No EPI, E. faecalis clinical isolate 2): 4 µg/mL | MIC ([2]; read-out: MIC, No EPI, E. faecalis clinical isolate 3): > 256 µg/mL | MIC ([2]; read-out: MIC, No EPI, E. faecalis clinical isolate 4): 1 µg/mL | MIC ([2]; read-out: MIC, No EPI, E. faecalis clinical isolate 5): 2 µg/mL | MIC ([2]; read-out: MIC, No EPI, E. faecalis clinical isolate 6): 2 µg/mL | MIC ([2]; read-out: MIC, No EPI, E. faecalis clinical isolate 7): 1 µg/mL | MIC ([2]; read-out: MIC, No EPI, E. faecalis clinical isolate 8): 128 µg/mL | MIC ([2]; read-out: MIC, No EPI, E. faecalis clinical isolate 9): 1 µg/mL | MIC ([2]; read-out: MIC, No EPI, E. faecalis clinical isolate 10): 2 µg/mL | MIC ([2]; read-out: MIC, No EPI, E. faecalis clinical isolate 11): 16 µg/mL | MIC ([2]; read-out: MIC, No EPI, E. faecalis clinical isolate 12): 4 µg/mL | MIC ([2]; read-out: MIC, No EPI, E. faecalis clinical isolate 13): 2 µg/mL | MIC ([2]; read-out: MIC, No EPI, E. faecalis clinical isolate 14): 1 µg/mL | MIC ([2]; read-out: MIC, No EPI, E. faecalis clinical isolate 15): 4 µg/mL | MIC ([2]; read-out: MIC, No EPI, E. faecalis clinical isolate 16): 0.5 µg/mL | MIC ([2]; read-out: MIC, No EPI, E. faecalis clinical isolate 17): 4 µg/mL | MIC ([2]; read-out: MIC, No EPI, E. faecalis clinical isolate 18): > 256 µg/mL | MIC ([2]; read-out: MIC, No EPI, E. faecalis clinical isolate 19): 2 µg/mL | MIC ([2]; read-out: MIC, No EPI, E. faecalis clinical isolate 20): 2 µg/mL | MIC ([2]; read-out: MIC, No EPI, E. faecalis clinical isolate 21): 1 µg/mL | MIC ([2]; read-out: MIC, No EPI, E. faecalis clinical isolate 22): 1 µg/mL | MIC ([2]; read-out: MIC, No EPI, E. faecalis clinical isolate 23): 2 µg/mL | MIC ([2]; read-out: MIC, No EPI, E. faecalis clinical isolate 24): 1 µg/mL | MIC ([2]; read-out: MIC, No EPI, E. faecalis clinical isolate 25): 1 µg/mL | MIC ([2]; read-out: MIC, No EPI, E. faecalis clinical isolate 26): > 256 µg/mL

CC[C@H]1OC(=O)[C@H](C)[C@@H](O[C@H]2C[C@@](C)(OC)[C@@H](O)[C@H](C)O2)[C@H](C)[C@@H](O[C@@H]2O[C@H](C)C[C@H](N(C)C)[C@H]2O)[C@](C)(O)C[C@@H](C)CN(C)[C@H](C)[C@@H](O)[C@]1(C)O [azithromycin]
MIC [3, 8]: 1 µg/mL | MIC in the presence of 4X MEC of EPI, VX-710 [3]: 1 µg/mL | MIC in the presence of 4X MEC of EPI, VX-853 [3]: 1 µg/mL | MIC in the presence of 4X MEC of EPI, reserpine [3]: 1 µg/mL

CO/N=C(\C(=O)N[C@@H]1C(=O)N2C(C(=O)O)=C(CSc3nc(=O)c(=O)[nH]n3C)CS[C@H]12)c1csc(N)n1 [ceftriaxone]
MIC [3, 8]: 4 µg/mL | MIC in the presence of 4X MEC of EPI, VX-710 [3]: 4 µg/mL | MIC in the presence of 4X MEC of EPI, VX-853 [3]: 4 µg/mL | MIC in the presence of 4X MEC of EPI, reserpine [3]: 4 µg/mL

O=C(N[C@H](CO)[C@H](O)c1ccc([N+](=O)[O-])cc1)C(Cl)Cl [chloramphenicol]
MIC [3, 8]: 8 µg/mL | MIC in the presence of 4X MEC of EPI, VX-710 [3]: 8 µg/mL | MIC in the presence of 4X MEC of EPI, VX-853 [3]: 8 µg/mL | MIC in the presence of 4X MEC of EPI, reserpine [3]: 8 µg/mL

CC[C@H]1OC(=O)[C@H](C)[C@@H](O[C@H]2C[C@@](C)(OC)[C@@H](O)[C@H](C)O2)[C@H](C)[C@@H](O[C@@H]2O[C@H](C)C[C@H](N(C)C)[C@H]2O)[C@](C)(O)C[C@@H](C)C(=O)[C@H](C)[C@@H](O)[C@]1(C)O [erythromycin]
MIC [3, 8]: 0.25 µg/mL | MIC in the presence of 4X MEC of EPI, VX-710 [3]: 0.25 µg/mL | MIC in the presence of 4X MEC of EPI, VX-853 [3]: 0.25 µg/mL | MIC in the presence of 4X MEC of EPI, reserpine [3]: 0.25 µg/mL

C[C@H]1COc2c(N3CCN(C)CC3)c(F)cc3c(=O)c(C(=O)O)cn1c23 [levofloxacin]
MIC [4]: 0.25 µg/mL | MIC ([5]; Staphylococcus aureus, read-out: MIC of antibacterial agent, EPI none): 0.125 µg/mL | MIC [3, 8]: 0.25 µg/mL | MIC in the presence of 4X MEC of EPI, VX-710 [3]: 0.125 µg/mL | MIC in the presence of 4X MEC of EPI, VX-853 [3]: 0.125 µg/mL | MIC in the presence of 4X MEC of EPI, reserpine [3]: 0.125 µg/mL

CC(=O)NC[C@H]1CN(c2ccc(N3CCOCC3)c(F)c2)C(=O)O1 [linezolid]
MIC [3, 8]: 4 µg/mL | MIC in the presence of 4X MEC of EPI, VX-710 [3]: 4 µg/mL | MIC in the presence of 4X MEC of EPI, VX-853 [3]: 4 µg/mL | MIC in the presence of 4X MEC of EPI, reserpine [3]: 4 µg/mL

CO[C@@H]1[C@@H](OC(N)=O)[C@@H](O)[C@H](Oc2ccc3c(O)c(NC(=O)c4ccc(O)c(CC=C(C)C)c4)c(=O)oc3c2C)OC1(C)C [novobiocin]
MIC [3, 8]: 0.125 µg/mL | MIC in the presence of 4X MEC of EPI, VX-710 [3]: 0.063 µg/mL | MIC in the presence of 4X MEC of EPI, VX-853 [3]: 0.063 µg/mL | MIC in the presence of 4X MEC of EPI, reserpine [3]: 0.063 µg/mL

[Br-].c1ccc([P+](c2ccccc2)(c2ccccc2)c2ccccc2)cc1 [tetraphenylphosphonium bromide]
MIC ([3]; ATCC29213, read-out: MIC, No EPI, antibacterial agent alone): 16 µg/mL | MIC in the presence of 4X MEC of EPI, VX-710 [3]: 4 µg/mL | MIC in the presence of 4X MEC of EPI, VX-853 [3]: 8 µg/mL | MIC in the presence of 4X MEC of EPI, reserpine [3]: 8 µg/mL

gentamicin [reference compound]
MIC of antibacterial agent, EPI none ([5]; S. aureus SA-1199, no EPI): 0.5 µg/mL | MIC of antibacterial agent, EPI none ([3]; S. aureus ATCC 29213, no EPI): 0.5 µg/mL | MIC in the presence of 4X MEC of EPI, VX-853 [3]: 0.25 µg/mL | MIC, No EPI ([3]; antibacterial agent alone): 0.5 µg/mL | MIC of antibacterial agent, EPI none [6]: 0.063 µg/mL | MIC of antibacterial agent, EPI none [7]: 0.5 µg/mL
